According to EP1637163A1, “Indicator of therapeutic compliance” (priority 2004, dated 2006):

Columns and labels:
[1] = Saliva test after ingestion of labelled substance (isotope content by mass spectrometry, δ-values); format: in vivo, human
Procedure: (§1) As a first step to test the feasibility of this approach, a self-experiment was conducted by the inventors. The aim was to obtain first data on the effect size, the pharmacokinetic data in various body fluids, and the variability between subjects. Single, large doses of the following substances were ingested by the subjects: ^13C6-glucose (1 g, two subjects) ^15N-L-leucine (1 g, two subjects) ^15N3-L-arginine (250 mg, one subject) ^15N4-L-histidine (250 mg, one subject) Baseline and follow-up samples were taken from the following body fluids: blood, saliva, and urine. These samples were dried, milled, burned, and analysed by mass spectrometry. […] Samples of exhaled breath were taken until 3 days after ingestion and analysed by IR-spectroscopy for ^13C/^12C-ratios.
(§2) Blood: Appr. 4 ml of venous blood were drawn and given into a thoroughly cleaned glass vial. The sample was frozen immediately at -18°C and stored at this temperature. Saliva: Saliva samples were obtained by letting the volunteers chew on "salivettes", i. e., cotton swabs, which were then centrifuged to extract saliva. The saliva samples were frozen at -18°C and stored at this temperature. […]
(§3) The isotopic composition was measured and compared to a standard. […] Samples of exhaled breath were taken until 3 days after ingestion and analysed by IR-spectroscopy for ^13C/^12C-ratios.

[2] = parameters: species or system human; details: in vivo
Procedure: as §1, §2, §3

[3] = parameters: species or system human; details: in vivo; remark: listed apart in the source
Procedure: As a first step to test the feasibility of this approach, a self-experiment was conducted by the inventors. The aim was to obtain first data on the effect size, the pharmacokinetic data in various body fluids, and the variability between subjects. Single, large doses of the following substances were ingested by the subjects: ^13C6-glucose (1 g, two subjects) ^15N-L-leucine (1 g, two subjects) ^15N3-L-arginine (250 mg, one subject) ^15N4-L-histidine (250 mg, one subject) Baseline and follow-up samples were taken from the following body fluids: blood, saliva, and urine. These samples were dried, milled, burned, and analysed by mass spectrometry. The results are given as δ-values, which are defined as follows: [formula] where rsample is the ratio of ^15N [^13C] over ^14N [[…]] in the sample, and rstandard is the ratio of ^15N [^13C] over ^14N [[…]] in a standard. Samples of exhaled breath were taken until 3 days after ingestion and analysed by IR-spectroscopy for ^13C/^12C-ratios. Glucose and leucine were ingested on day zero, while arginine and histidine were ingested on day 116.
Gas of the sample tubes was separated by freezing at -196°C (N2) and - 78°C(CO2), and let into a mass spectrometer (Finnigan Delta +XL) according to manufacturer's specifications. The isotopic composition was measured and compared to a standard. Results are given as δ-values, which are defined as follows: [formula] where rsample is the ratio of ^15N [^13C] over ^14N [[…]] in the sample, and rstandard is the ratio of ^15N [^13C] over ^14N [^13C] in a standard. Samples of exhaled breath were taken until 3 days after ingestion and analysed by IR-spectroscopy for ^13C/^12C-ratios. Glucose and leucine were ingested on day zero, while arginine and histidine were ingested on day 116.

[4] = Blood test after ingestion of labelled substance (isotope content by mass spectrometry, δ-values); format: in vivo, human
Procedure: as §1
Blood: Appr. 4 ml of venous blood were drawn and given into a thoroughly cleaned glass vial. The sample was frozen immediately at -18°C and stored at this temperature. Saliva: Saliva samples were obtained by letting the volunteers chew on "salivettes", i. e., cotton swabs, which were then centrifuged to extract saliva. The saliva samples were frozen at -18°C and stored at this temperature. Urine: Urine was given into glass vials and frozen and stored at -18°C. All samples were freezedried in vacuo at -70°C, and an appropriate amount of the resulting powder was given into Supremax glass tubes, together with an appropriate amount of copper oxide, evacuated, and sealed.
as §3

Row | SMILES | effect size in saliva samples ([1]; saliva, single 1 g dose ingested, two subjects, relatively large variation) | relative amount of ^13C in urine: drop to normal levels [2] [days] | period over which measurements of ^13CO2 in expired breath are sensitive [3] [days] | period over which the relative content of ^13C (DOB = delta over baseline) rises [3] [h] | relative content of ^13C returns to baseline values [3] [h] | remaining effect size ([4]; blood, after about 50 hours after ingestion, disturbed by large variations) | marked increase in ^13C-content (time after ingestion) ([4]; in vivo) | rapid decrease of ^13C-content until (time after ingestion) ([4]; in vivo) | period after which δ-values in saliva are similar to urine-values ([1]; in vivo) | δ-^15N-values of urine: time after which the figure slowly returns to baseline values [2]
1 | O[13CH2][13C@H]1O[13CH](O)[13C@H](O)[13C@@H](O)[13C@@H]1O (stereo partly shown) [^13C6-glucose] | no significant effect size | ≤ 5 | 1 to 2 | 1 to 3 | 36 to 48 | small | approximately 6 hours | about 50 hours | – | –
2 | CC(C)C[C@H]([15NH2])C(=O)O [^15N-L-leucine] | – | – | – | – | – | – | – | – | ca. 1 week | approximately 5 days
